Experimental findings from patent US20040019091A1, “Triazole derivatives and pharmaceutical compositions comprising them” (priority 2000, published 2004) are described below.

Usually melting point stands for the temperature, or range, at which the solid turns liquid. The term IC50 denotes the concentration that inhibits the measured activity by half. The EC50 is the concentration at which the effect is half-maximal. As a reminder, the ED50 is the dose that gives a 50% effect, or the effect in half of the subjects.

In one series the target is T1, human CCK2 receptor (Homo sapiens, UniProt P32239).
T1 sequence (P32239 1-447): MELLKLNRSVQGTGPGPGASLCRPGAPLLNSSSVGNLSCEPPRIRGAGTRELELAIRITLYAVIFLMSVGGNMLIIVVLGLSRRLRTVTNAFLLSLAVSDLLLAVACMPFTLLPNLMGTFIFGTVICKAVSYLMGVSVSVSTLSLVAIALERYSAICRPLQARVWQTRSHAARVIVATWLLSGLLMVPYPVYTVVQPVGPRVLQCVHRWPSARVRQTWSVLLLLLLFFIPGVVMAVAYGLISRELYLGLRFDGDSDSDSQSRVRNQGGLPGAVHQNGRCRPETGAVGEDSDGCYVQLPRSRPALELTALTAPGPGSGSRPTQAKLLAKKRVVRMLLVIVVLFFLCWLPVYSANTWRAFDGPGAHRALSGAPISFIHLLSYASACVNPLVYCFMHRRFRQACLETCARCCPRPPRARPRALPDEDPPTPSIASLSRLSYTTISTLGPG
As to the kind of experiment: in vitro binding to CCK2 receptor. The following applies: read-out: IC50 (affinity, human CCK2 receptor). Here is the method: their selectivity for the CCK2 receptor;
(§1) The compounds of formula (I) underwent studies of in vitro binding to CCK1 and CCK2 receptors, using the method described in Europ. J. Pharmacol., 1993, 232, 13-19. […] The agonist activity of the compounds towards CCK1 receptors was evaluated in vitro in 3T3 cells expressing the human CCK1 receptor, by measuring the mobilization of the intracellular calcium ([Ca^++]i), according to a technique derived from that of Lignon M F et al., Eur. J. Pharmacol., 1993, 245, 241-245. The calcium concentration [Ca^++]i is evaluated with Fura-2 by the double excitation wavelength method. The ratio of the fluorescence emitted at two wavelengths gives the concentration of [Ca^++]i, after calibration (Grynkiewiez G. et al., J. Biol. Chem., 1985, 260, 3440-3450).

The next series concerns the target T2, human CCK1 receptor (Homo sapiens, UniProt P32238).
T2 construct: expressed in transfected cells; host or cells: 3T3 cells
T2 sequence (P32238 1-428): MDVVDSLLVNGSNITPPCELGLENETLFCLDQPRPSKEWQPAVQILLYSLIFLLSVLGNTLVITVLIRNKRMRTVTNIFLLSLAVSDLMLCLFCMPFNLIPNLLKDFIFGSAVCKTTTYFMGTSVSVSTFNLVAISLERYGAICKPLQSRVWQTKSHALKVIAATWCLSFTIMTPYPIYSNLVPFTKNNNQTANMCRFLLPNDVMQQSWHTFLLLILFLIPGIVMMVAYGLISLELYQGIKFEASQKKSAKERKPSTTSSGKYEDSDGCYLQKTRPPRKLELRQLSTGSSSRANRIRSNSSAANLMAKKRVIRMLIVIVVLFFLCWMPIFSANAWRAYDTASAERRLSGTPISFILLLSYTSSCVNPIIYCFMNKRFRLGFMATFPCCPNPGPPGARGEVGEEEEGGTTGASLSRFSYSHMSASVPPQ
The experiment in a line: in vitro binding to CCK1 receptor ([125I]-CCK displacement). On the procedure: their potentiality for displacing [^125I]-CCK from its binding sites present in rat pancreatic membranes (CCK1 receptor) or 3T3 cells expressing recombinant human CCK1 receptor;
as §1

The target in series [1] is T3, 3T3 cells expressing the human CCK1 receptor (Homo sapiens, UniProt P32238).
T3 construct: expressed in transfected cells; host or cells: 3T3 cells
T3 sequence (P32238 1-428): T2 sequence (P32238 1-428)
The experiment in a line: mobilization of intracellular calcium ([Ca++]i), Fura-2. It is filed as cell-based. The note with it: read-out: EC50 [Ca++]i release. On the procedure: their CCK1 receptor agonist property, by way of their capacity to induce mobilization of intracellular calcium in vitro in 3T3 cells expressing the human CCK1 receptor;
as §1
A general note: Calcium assays in cells follow changes in intracellular calcium, usually with a dye or a luminescent sensor.

The subject of a further series is gastric emptying. The experiment in a line: gastric emptying of a charcoal meal in the mouse, oral route. The following applies: p.o., 60 minutes before charcoal meal, read-out: ED50 inhibition of gastric emptying. It is filed as in vivo, Female Swiss albino CD1 mice. Here is the method:
their agonist effect by the oral route on gastric drainage in the mouse.
An in vivo study of the agonist effect of the compounds on gastric emptying was carried out as follows. Female Swiss albino CD1 mice (20-25 g) are placed on a solid fast for 18 hours. On the day of the experiment, the products are administered orally 60 minutes before the administration of a charcoal meal (0.3 ml per mouse of a suspension in water of 10% charcoal powder, 5% gum arabic and 1% carboxymethylcellulose). The mice are sacrificed 5 minutes later by cervical dislocation, and the gastric emptying is defined as the presence of charcoal in the intestine beyond the pyloric sphincter (Europ. J. Pharmacol., 1993, 232, 13-19).

Take `CCNCC.COc1cc(-c2nc(NC(=O)c3cc4c(C)c(C)c(OC)cc4n3CCC(=O)O)nn2CCC2CCCCC2)c(OC)cc1C`: the melting point is 143 °C (dec.).

In the case of `COc1cc(-c2nc(NC(=O)c3cc4c(C)c(C)c(OC)cc4n3CCC(=O)[O-])nn2CCC2CCCCC2)c(OC)cc1C.[K+]` [Example 1, 3-[2-[[[1-(2-cyclohexylethyl)-5-(2,5-dimethoxy-4-methylphenyl)-1H-1,2,4-triazol-3-yl]amino]carbonyl]-6-methoxy-4,5-dimethyl-1H-indol-1-yl]propionic acid, Potassium Salt], the IC50 is 234 nM at human CCK2 receptor and 0.4 nM at human CCK1 receptor (human CCK1 receptor, read-out: IC50 (affinity, human CCK1 receptor)). Further, the “selectivity (affinity CCK1 receptor versus affinity of CCK2 receptor)” value at human CCK1 receptor (human CCK1 versus human CCK2) is given as > 500 fold. For the same molecule, the EC50 in series [1] is ~1 nM.

In the case of `COc1cc(-c2nc(NC(=O)c3cc4c(C)c(C)c(OC)cc4n3CCC(=O)O)nn2CCC2CCCCC2)c(OC)cc1C.NCCO` [Example 3, 3-[2-[[[1-(2-cyclohexylethyl)-5-(2,5-dimethoxy-4-methylphenyl)-1H-1,2,4-triazol-3-yl]amino]carbonyl]-6-methoxy-4,5-dimethyl-1H-indol-1-yl]propionic acid ethanolamine salt], the ED50 in the series on gastric emptying was found to be 0.027 mg/kg.
